Data as given in patent publication US20130045962A1, “PEPTIDE DEFORMYLASE INHIBITORS” (priority 2007, published 2013).
Converted amounts (≈) assume the structure as drawn. “And” between values parts separate entries of the source, which are not always exact repeats. Equal entries are not always repeated. Where two headings read alike, the source gives them in different places.

Tests used:
Assay in all cases: Antimicrobial activity assay (broth microdilution MIC)
Type in all cases: cell-based
[1] = system: Haemophilus influenzae NEMC1; conditions: for MIC: Haemophilus influenzae, read-out: MIC H. influenzae NEMC1
Method: (§1) Whole-cell antimicrobial activity was determined by broth microdilution using the Clinical and Laboratory Standards Institute (CLSI, formerly NCCLS) recommended methodology (NCCLS Document M7-A6, “Methods for Dilution Susceptibility Tests for Bacteria that Grow Aerobically Approved Standard Sixth Edition”, 2003). Compounds were tested in serial two-fold dilutions ranging from 64 to 0.06 μg/mL. A panel of 12 strains was evaluated in the assay. This panel consisted of the following laboratory strains: Staphylococcus aureus Oxford, Staphylococcus aureus WCUH29, Enterococcus faecalis I, Enterococcus faecalis 7, Haemophilus influenzae Q1, Haemophilus influenzae NEMC1, Moraxella catarrhalis 1502, Streptococcus pneumoniae 1629, Streptococcus pneumoniae N1387, Streptococcus pneumoniae Ery2, Escherichia coli 7623 (AcrABEFD+) and Escherichia coli 120 (AcrAB−). The minimum inhibitory concentration (MIC) was determined as the lowest concentration of compound that inhibited visible growth. A mirror reader was used to assist in determining the MIC endpoint.

[2] = system: Escherichia coli 7623 (AcrABEFD+); conditions: for MIC: Escherichia coli, read-out: MIC E. coli 7623 AcrABEFD+
Method: as §1

[3] = system: Escherichia coli 120 (AcrAB−); conditions: for MIC: Escherichia coli; for MIC E. coli 120 AcrAB—: individual results, panel run 2 times
Method: as §1

[4] = system: Haemophilus influenzae Q1; conditions: for MIC: Haemophilus influenzae, read-out: MIC H. influenzae Q1; for MIC H. influenzae Q1: individual results
Method: as §1

[5] = system: Streptococcus pneumoniae N1387; conditions: median of all results obtained, read-out: MIC S. pneumoniae N1387
Method: as §1

[6] = system: Streptococcus pneumoniae 1629; conditions: median of all results obtained, read-out: MIC S. pneumoniae 1629
Method: as §1

[7] = system: Enterococcus faecalis 7; conditions: median of all results obtained, read-out: MIC E. faecalis 7
Method: as §1

[8] = system: Staphylococcus aureus Oxford; conditions: median of all results obtained, read-out: MIC S. aureus Oxford
Method: as §1

[9] = system: Enterococcus faecalis I; conditions: median of all results obtained, read-out: MIC E. faecalis I
Method: as §1

[10] = NEMC1, median of all results obtained
[11] = read-out: MIC E. coli 120 AcrAB—, median of all results obtained
[12] = Q1, median of all results obtained
[13] = NEMC1, individual results, panel run 2 times
[14] = individual results, panel run 2 times
[15] = Q1, individual results, panel run 2 times

SMILES | MIC [1, 10] | MIC ([2]; median of all results obtained) | MIC [3, 11] | MIC [4, 12] | MIC [1, 13] | MIC E. coli 7623 AcrABEFD+ [2, 14] | MIC [4, 15] | MIC H. influenzae Q1 ([4]; panel run 2 times) | MIC E. coli 120 AcrAB— [3] | further results
C[C@@H]1CN(C)CCN1c1nc(Cl)nc(NNC(=O)[C@H](CC2CCCC2)CN(O)C=O)c1F [Example 63, [(2R)-3-(2-{2-Chloro-6-[(2R)-2,4-dimethyl-1-piperazinyl]-5-fluoro-4-pyrimidinyl}hydrazino)-2-(cyclopentylmethyl)-3-oxopropyl]hydroxyformamide] | 0.5 µg/mL (≈ 1.06 µM) | 4 µg/mL (≈ 8.48 µM) | 0.25 µg/mL (≈ 0.53 µM) | 0.25 µg/mL (≈ 0.53 µM) | – | – | – | – | – | –
CN1CCN(c2nc(Cl)nc(NNC(=O)[C@H](CC3CCCC3)CN(O)C=O)c2F)CC12CC2 [Example 172, [(2R)-3-{2-[2-Chloro-5-fluoro-6-(4-methyl-4,7-diazaspiro[2.5]oct-7-yl)-4-pyrimidinyl]hydrazino}-2-(cyclopentylmethyl)-3-oxopropyl]hydroxyformamide] | – | – | – | – | 1 µg/mL (≈ 2.07 µM) | 4 µg/mL and 16 µg/mL | 1 µg/mL (≈ 2.07 µM) | 2 µg/mL (≈ 4.13 µM) | – | MIC H. influenzae NEMC1 [1, 14]: 2 µg/mL (≈ 4.13 µM); MIC ([3]; read-out: MIC E. coli 120 AcrAB—, individual results, panel run 2 times): 0.125 to 0.5 µg/mL (≈ 0.258 to 1.03 µM)
Cc1nc(NNC(=O)[C@H](CC2CCCC2)CN(O)C=O)c(F)c(N2CCN(C)C3(CC3)C2)n1 [Example 275, ((2R)-2-(Cyclopentylmethyl)-3-{2-[5-fluoro-2-methyl-6-(4-methyl-4,7-diazaspiro[2.5]oct-7-yl)-4-pyrimidinyl]hydrazino}-3-oxopropyl)hydroxyformamide] | – | – | – | – | 1 µg/mL (≈ 2.16 µM) | 4 µg/mL and 16 µg/mL | 0.5 µg/mL (≈ 1.08 µM) | 1 µg/mL (≈ 2.16 µM) | ≦0.06, μg/mL and 0.5 μg/mL | –
Cc1nc(NNC(=O)[C@H](CC2CCCC2)CN(O)C=O)c(F)c(N2CCN(C)C[C@H]2C)n1 [Example 109, [(2R)-2-(Cyclopentylmethyl)-3-(2-{6-[(2R)-2,4-dimethyl-1-piperazinyl]-5-fluoro-2-methyl-4-pyrimidinyl}hydrazino)-3-oxopropyl]hydroxyformamide] | – | – | – | – | 1 µg/mL (≈ 2.21 µM) | – | 0.5 µg/mL (≈ 1.11 µM) | – | ≦0.06, μg/mL and 0.125 μg/mL | MIC [2, 14]: 8 µg/mL (≈ 17.7 µM)
Cc1nc(NNC(=O)[C@H](CC2CCCC2)CN(O)C=O)c(F)c(N2CCN3CCOC[C@@H]3C2)n1 [Example 24, [(2R)-2-(Cyclopentylmethyl)-3-(2-{5-fluoro-6-[(9aS)-hexahydropyrazino[2,1-c][1,4]oxazin-8(1H)-yl]-2-methyl-4-pyrimidinyl}hydrazino)-3-oxopropyl]hydroxyformamide] | 1 µg/mL (≈ 2.09 µM) | 16 µg/mL (≈ 33.4 µM) | 0.188 µg/mL (≈ 0.391 µM) | 0.5 µg/mL (≈ 1.04 µM) | – | – | – | – | – | MIC [5]: 0.5 µg/mL (≈ 1.04 µM); MIC [6]: 0.75 µg/mL (≈ 1.56 µM); MIC [7]: 32 µg/mL (≈ 66.7 µM); MIC [8]: 2 µg/mL (≈ 4.17 µM); MIC [9]: 48 µg/mL (≈ 100 µM)
